The record followed here is patent US20090312406A1, “COUMARIN COMPOUNDS AND THEIR USE FOR TREATING VIRAL INFECTION” (priority 2008, published 2009).

Each structure is given as a SMILES string. Read-outs that look alike come from different tables or passages of the source.

The test system of data set [1] is Influenza A/WSN/33 (H1N1) virus. The experiment in a line: In vitro anti-influenza virus assay (neutralization test), cytopathic effect on MDCK cells. The following applies: MDCK cells, 72 h, read-out: IC50 (concentration reducing virus-induced cytopathic effect by 50%). It is filed as cell-based. How it is done: Anti-influenza activities of the coumarin compounds were evaluated by measuring the ability of a test compound to inhibit the cytopathic effect induced by an influenza virus on MDCK cells. The 96-well tissue culture plates were seeded with 200 μL of MDCK cells at a concentration of 1.1×10^5 cells/mL in DMEM with 10% fetal bovine serum (FBS). The plates were incubated for 24-30 h at 37° C. and were used at about 90% confluency. Influenza A/WSN/33 (H1N1) virus (100 TCID50) was added to the cells and incubated at 35° C. for 1 h. After adsorption, the infected cell plates were overlaid with 50 μL of DMEM plus 2% FBS and a test compound with different concentrations. The plate was incubated at 35° C. for 72 h. At the end of incubation, the plates were fixed by the addition of 100 μL of 4% formaldehyde for 1 h at room temperature. After the removal of formaldehyde, the plates were stained with 0.1% crystal violet for 15 min at room temperature. The plates were washed and dried, and the density of the well was measured at 570 nm. The concentration required for a test compound to reduce the virus-induced cytopathic effect (CPE) by 50% relative to the virus control was expressed as IC50.
Compounds 1 and 95 were also tested on various influenza virus strains. Amantadine or Relenza was also tested for comparison. IC50 is defined as the concentration required for a test compound to reduce the virus-induced cytopathic effect (CPE) by 50% relative to the virus control.
A general note: Cytopathic effects are the visible damage that an infection or toxin causes in cultured cells.

Data set [2] has as its system herpes simplex virus type 1. In words: In vitro assessment of anti-HSV activity, plaque reduction assay in Vero cells (Example 8). It is filed as cell-based. The note with it: for SI, selectivity index = CC50/EC50: CC50/EC50, HSV-1; for EC50: Human alphaherpesvirus 1, herpes simplex virus type 1, Vero cells, plaque reduction, 72 h, read-out: EC50 (μM), 50% effective concentration. The method, then:
Anti-HSV activities of compounds described herein were evaluated by performing a plaque reduction assay using monolayer cultures of Vero cells in 24-well culture plates. A cell monolayer was infected with herpes simplex virus type 1 (50 pfu/well) and incubated at 37° C. with 5% CO2 for 1 h. The infected cell monolayer was then washed three times with PBS and overlaid with a solution (maintenance medium containing 1% methylcellulose and various concentrations of a test compound). After 72 h of incubation at 37° C., the cell monolayer was fixed with 10% formalin and stained with 1% crystal violet. […] The minimal concentration of a compound required to reduce 50% of plaque numbers (EC50) was calculated by regression analysis of the dose-response curves generated from the plaque assay.
(In general: Plaques are areas of infected cells; plaque reduction assays count them against a control.)

A short description of data set [3]: Cytotoxicity (CC50) of the compounds tested in the anti-HSV assay. It is filed as cell-based. The following applies: African green monkey, Vero cells; Table 5; read-out: CC50 (μM), 50% cytotoxicity concentration.
A further data set has as its system HIV-1. The experiment in a line: Inhibition of HIV-1 replication in peripheral blood mononuclear cells, viral RNA by real-time PCR. The note with it: Human immunodeficiency virus 1, PBMC. (Real-time PCR tracks product formation cycle by cycle.)
The mark [4] stands for this setting: lower bound (10 nM), upper in μM.
Where [5] appears, read: 72 h, read-out: Inhibition (%) Day 3.
Setting [6] is: 120 h, read-out: Inhibition (%) Day 5.
The mark [7] stands for this setting: 168 h, read-out: Inhibition (%) Day 7.

Experimental for HIV-1: Equal amounts of wild-type and mutant viruses were used to infect 5×10^4 peripheral blood mononuclear cells (PBMC) in 1.5 mL medium containing DMSO or various concentrations of a test compound. A half-milliliter of the culture medium was collected from each culture at days 3, 5, and 7. Viral RNA was extracted from the collected culture supernatants and the viral titers (copies/mL) were determined by real-time PCR. The percentage of inhibition was calculated as [100−(VD/VC)]×100%, where VD and VC refer to the virus titers in the presence and absence of the test compound, respectively.

On to `Cc1cc(=O)oc2c1ccc1oc(C(=O)c3ccccc3)c(-c3ccc(Br)cc3)c12` [Compound 140], for which the IC50 in data set [1] (setting [4]) lay in the range of 10 to 999 nM. In data set [2], the “SI, selectivity index = CC50/EC50” value is listed as above 291.545. Moreover, in data set [2], the EC50 was determined as 0.343 µM. The CC50 in data set [3] was above 100 µM. The inhibition (in general, how much of the control response was suppressed) at 0.1 µM with HIV-1 (setting [5]) came to 19%; with HIV-1 (setting [6]), 65%; with HIV-1 (setting [7]), 93%.

Turning to `Cc1cc(=O)oc2c1ccc1oc(C(=O)c3ccccc3)c(-c3ccc(F)cc3)c12` [Compound 134], in data set [1] (setting [4]), the IC50 lay in the range of 10 to 999 nM. The “SI, selectivity index = CC50/EC50” value in data set [2] is listed as above 3095.975. The EC50 in data set [2] is 0.0323 µM. For the same compound, in data set [3], the CC50 is above 100 µM. For the same compound, the inhibition at 0.1 µM came to 61% in the data set on HIV-1 (setting [5]), 91% in the data set with HIV-1 (setting [6]) and 96% with HIV-1 (setting [7]).

Turning to `Cc1cc(=O)oc2c1ccc1oc(C(=O)c3cccc(O)c3)c(-c3ccccc3)c12` [Compound 33], the IC50 in data set [1] (setting [4]) is 10 to 999 nM. The “SI, selectivity index = CC50/EC50” value in data set [2] is reported as 235.972. For the same compound, the EC50 in data set [2] worked out at 0.396 µM. For the same compound, the CC50 in data set [3] was determined as 93.4 µM. Besides, the figures for the inhibition at 0.1 µM in the data set on HIV-1 (setting [5]), with HIV-1 (setting [6]) and in the data set with HIV-1 (setting [7]) were 5%, 98% and 99.5%, respectively.

For `COc1cccc(C(=O)c2oc3ccc4c(C)cc(=O)oc4c3c2-c2cccc(F)c2)c1` [Compound 246], the IC50 in data set [1] (setting [4]) is 10 to 999 nM.

On to `Cc1cc(=O)oc2c1ccc1oc(C(=O)c3cccc(OCCCCCl)c3)c(-c3ccccc3)c12` [Compound 75], for which, in data set [1] (setting [4]), the IC50 fell in the range of 10 to 999 nM.

On to `Cc1cc(=O)oc2c1ccc1oc(C(=O)c3ccccc3)c(-c3cccc(C#N)c3)c12` [Compound 143], for which, in data set [1] (setting [4]), the IC50 lay within 10 to 999 nM.

`COc1cccc(C(=O)c2oc3ccc4c(C)cc(=O)oc4c3c2-c2ccccc2F)c1` [Compound 245]: the IC50 in data set [1] (setting [4]) is 10 to 999 nM.

Take `Cc1cn([C@H]2C[C@H](N=[N+]=[N-])[C@@H](CO)O2)c(=O)[nH]c1=O` [AZT, zidovudine, reference compound]: the results for the inhibition at 0.05 µM in the data set with HIV-1 (setting [5]), in the data set with HIV-1 (setting [6]) and in the data set with HIV-1 (setting [7]) were 6%, 71% and 88%, respectively.

For `Cc1cc(=O)oc2c1ccc1oc(C(=O)c3ccccc3)c(-c3cccc4ccccc34)c12` [Compound 206], in data set [1] (setting [4]), the IC50 lay in the range of 10 to 999 nM.

Take `Cc1cc(=O)oc2c1ccc1oc(C(=O)c3ccccc3)c(/C=C/c3ccccc3)c12` [Compound 161]: the IC50 in data set [1] (ranges given) fell in the range of 1000 to 5900 nM.

Consider `CCOc1cccc(C(=O)c2oc3ccc4c(C)cc(=O)oc4c3c2-c2ccccc2)c1` [Compound 68], for which the IC50 in data set [1] (setting [4]) is 10 to 999 nM.

On to `C=CCCCCOc1cccc(C(=O)c2oc3ccc4c(C)cc(=O)oc4c3c2-c2ccccc2)c1` [Compound 79], for which the IC50 in data set [1] (setting [4]) fell in the range of 10 to 999 nM.

With `Cc1cc(=O)oc2c1ccc1oc(C(=O)c3cc(Cl)sc3Cl)c(-c3ccccc3)c12` [Compound 97], the IC50 in data set [1] (ranges given) is 1000 to 5900 nM.

`Cc1cc(=O)oc2c1ccc1oc(C(=O)c3cccc(Cl)c3)c(-c3ccc(F)cc3)c12` [Compound 222]: the IC50 in data set [1] (setting [4]) lay within 10 to 999 nM.

On to `COc1ccc(C(=O)c2oc3ccc4c(C)cc(=O)oc4c3c2-c2ccccc2)cc1` [Compound 32], for which, in data set [1] (ranges given), the IC50 lay in the range of 1000 to 5900 nM.

As for `Cc1cc(=O)oc2c1ccc1oc(C(=O)c3cccc(OCCCOC4OC(CO)C(O)C(O)C4O)c3)c(-c3ccccc3)c12` (stereo not shown) [Compound 197], in data set [1] (ranges given), the IC50 lay in the range of 6000 to 25000 nM.

With `CC(=O)OCC1OC(OCCCOc2cccc(C(=O)c3oc4ccc5c(C)cc(=O)oc5c4c3-c3ccccc3)c2)C(OC(C)=O)C(OC(C)=O)C1OC(C)=O` (stereo not shown) [Compound 196], the IC50 in data set [1] (ranges given) fell in the range of 6000 to 25000 nM.

As to `Cc1cc(=O)oc2c1ccc1oc(C(=O)c3cccc(OCCCCCO)c3)c(-c3ccccc3)c12` [Compound 187], in data set [1] (ranges given), the IC50 lay in the range of 1000 to 5900 nM.

On to `Cc1cc(=O)oc2c1ccc1oc(C(=S)c3ccccc3)c(-c3ccccc3)c12` [Compound 166], for which the IC50 in data set [1] (setting [4]) was in the range of 10 to 999 nM.

On to `Cc1cc(=O)oc2c1ccc1oc(C(=O)c3ccccc3)c(-c3ccc(O)cc3)c12` [Compound 239], for which, in data set [1] (ranges given), the IC50 was in the range of 1000 to 5900 nM.

For the compound `CCc1cc(=O)oc2c1ccc1oc(C(=O)c3ccccc3)c(-c3ccccc3)c12` [Compound 9], the IC50 in data set [1] (setting [4]) was 10 to 999 nM.

As to `C=CC(=O)Oc1cccc(C(=O)c2oc3ccc4c(C)cc(=O)oc4c3c2-c2ccccc2)c1` [Compound 182], the IC50 in data set [1] (ranges given) was 1000 to 5900 nM.

As for `Cc1cccc(-c2c(C(=O)c3ccccc3)oc3ccc4c(C)cc(=O)oc4c23)c1` [Compound 141], in data set [1] (setting [4]), the IC50 lay within 10 to 999 nM. Moreover, the “SI, selectivity index = CC50/EC50” value in data set [2] is above 25641.03. Further, in data set [2], the EC50 was 0.0039 µM. For the same compound, the CC50 in data set [3] is above 100 µM. For the same compound, the values for the inhibition at 0.1 µM in the data set on HIV-1 (setting [5]), with HIV-1 (setting [6]) and with HIV-1 (setting [7]) were 19%, 71% and 97%, respectively.

As to `Cc1cc(=O)oc2c1ccc1oc(C(=O)c3cccc(OCCCCO)c3)c(-c3ccccc3)c12` [Compound 186], in data set [1] (setting [4]), the IC50 fell in the range of 10 to 999 nM.

Turning to `Cc1cc(=O)oc2c1ccc1oc(C(=O)c3ccccc3)c(-c3ccccc3Cl)c12` [Compound 135], the IC50 in data set [1] (setting [4]) lay in the range of 10 to 999 nM.

Take `Cc1cc(=O)oc2c1ccc1oc(C(=O)c3ccccc3)c(-c3cc(F)cc(F)c3)c12` [Compound 148]: in data set [1] (setting [4]), the IC50 lay in the range of 10 to 999 nM.

As for `Cc1cc(=O)oc2c1ccc1oc(C(=O)c3ccccc3)c(-c3cc(Cl)cc(Cl)c3)c12` [Compound 149], the IC50 in data set [1] (ranges given) is 1000 to 5900 nM.

For `CCCCCC#CC(=O)Oc1cccc(C(=O)c2oc3ccc4c(C)cc(=O)oc4c3c2-c2ccccc2)c1` [Compound 203], the IC50 in data set [1] (ranges given) lay within 1000 to 5900 nM.

Consider `Cc1cc(=O)oc2c1ccc1oc(C(=O)c3cccc(OCCOCCOCCO)c3)c(-c3ccccc3)c12` [Compound 177], for which, in data set [1] (ranges given), the IC50 was 6000 to 25000 nM.

As to `Cc1cc(=O)oc2c1ccc1oc(C(=O)c3ccccc3F)c(-c3ccccc3)c12` [Compound 44], the IC50 in data set [1] (setting [4]) was 10 to 999 nM.

Regarding `Cc1cc(=O)oc2c1ccc1oc(C(=O)c3ccc(F)c(F)c3)c(-c3ccccc3)c12` [Compound 60], the IC50 in data set [1] (setting [4]) was 10 to 999 nM.

Regarding `COc1cccc(C(=O)c2oc3ccc4c(C)cc(=O)oc4c3c2-c2cccc(C)c2)c1` [Compound 247], the IC50 in data set [1] (setting [4]) lay within 10 to 999 nM.

Turning to `CCCCCCCCOc1cccc(C(=O)c2oc3ccc4c(C)cc(=O)oc4c3c2-c2ccccc2)c1` [Compound 243], in data set [1] (ranges given), the IC50 fell in the range of 6000 to 25000 nM.

With `Cc1cc(=O)oc2c1ccc1oc(C(=O)c3cccs3)c(-c3cccc(Br)c3)c12` [Compound 259], the IC50 in data set [1] (setting [4]) is 10 to 999 nM.

On to `Cc1cc(=O)oc2c1ccc1oc(C(=O)c3cccc(OCCO)c3)c(-c3ccccc3)c12` [Compound 184], for which, in data set [1] (ranges given), the IC50 was in the range of 6000 to 25000 nM.
